Six compounds from ChEMBL document CHEMBL5154740, “Novel Aurora A and Protein Kinase C (α, β1, β2, and θ) Multitarget Inhibitors: Impact of Selenium Atoms on the Potency and Selectivity” (J Med Chem, 2022) can be followed below.

In assay [1] the target is Tyrosine-protein kinase ABL1 (Homo sapiens) (UniProt P00519). The assay is described as follows: Inhibition of ABL1 (unknown origin) at 50 nM by Z'LYTE screening method relative to control.
Assay [2] has as its target T1, Aurora kinase A (Homo sapiens) (UniProt O14965).
T1 sequence (whole entry): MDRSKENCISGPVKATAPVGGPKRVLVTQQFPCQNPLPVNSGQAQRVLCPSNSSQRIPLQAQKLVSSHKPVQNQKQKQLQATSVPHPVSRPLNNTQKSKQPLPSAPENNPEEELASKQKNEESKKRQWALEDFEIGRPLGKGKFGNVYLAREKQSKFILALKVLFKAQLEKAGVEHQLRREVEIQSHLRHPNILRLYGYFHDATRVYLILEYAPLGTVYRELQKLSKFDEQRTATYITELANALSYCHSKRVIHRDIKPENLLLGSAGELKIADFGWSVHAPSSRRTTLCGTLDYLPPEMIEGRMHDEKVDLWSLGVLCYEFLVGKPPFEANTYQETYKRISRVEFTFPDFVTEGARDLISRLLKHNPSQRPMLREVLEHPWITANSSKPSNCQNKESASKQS
The assay is described as follows: Inhibition of AURA (unknown origin) at 50 nM by Z'LYTE screening method relative to control.

In assay [3] the target is T2, Aurora kinase C (Homo sapiens) (UniProt Q9UQB9).
T2 sequence (whole entry): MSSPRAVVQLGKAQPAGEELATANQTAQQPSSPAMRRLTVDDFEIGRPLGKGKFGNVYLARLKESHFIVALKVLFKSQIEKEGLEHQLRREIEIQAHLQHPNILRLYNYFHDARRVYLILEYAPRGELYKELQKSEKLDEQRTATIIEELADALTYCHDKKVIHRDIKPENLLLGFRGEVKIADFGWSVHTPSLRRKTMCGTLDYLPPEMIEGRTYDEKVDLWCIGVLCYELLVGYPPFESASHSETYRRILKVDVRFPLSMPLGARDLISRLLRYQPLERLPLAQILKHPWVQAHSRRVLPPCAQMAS
The assay is described as follows: Inhibition of AURC (unknown origin) at 50 nM by Z'LYTE screening method relative to control.

In assay [4] the target is Calcium/calmodulin-dependent protein kinase type 1D (Homo sapiens) (UniProt Q8IU85). Put plainly: Inhibition of CAMK1 delta (unknown origin) at 50 nM by Z'LYTE screening method relative to control.
The target in assay [5] is Cell division control protein 42 homolog (Homo sapiens) (UniProt P60953). Put plainly: Inhibition of CDC42 delta (unknown origin) at 50 nM by Z'LYTE screening method relative to control.
Assay [6] has as its target Receptor tyrosine-protein kinase erbB-2 (Homo sapiens) (UniProt P04626). The assay is described as follows: Inhibition of ERBB2 (unknown origin) at 50 nM by Z'LYTE screening method relative to control.
For assay [7], the target named is Fibroblast growth factor receptor 1 (Homo sapiens) (UniProt P11362). Put plainly: Inhibition of FGFR1 (unknown origin) at 50 nM by Z'LYTE screening method relative to control.
For assay [8], the target named is Vascular endothelial growth factor receptor 1 (Homo sapiens) (UniProt P17948). The assay is described as follows: Inhibition of FLT1/VEGFR1(unknown origin) at 50 nM by Z'LYTE screening method relative to control.
The target in assay [9] is Glycogen synthase kinase-3 beta (Homo sapiens) (UniProt P49841). The assay is described as follows: Inhibition of GSK3b (unknown origin) at 50 nM by Z'LYTE screening method relative to control.
Assay [10] addresses Mast/stem cell growth factor receptor Kit (Homo sapiens) (UniProt P10721). Put plainly: Inhibition of KIT (unknown origin) at 50 nM by Z'LYTE screening method relative to control.
Assay [11] addresses Dual specificity mitogen-activated protein kinase kinase 1 (Homo sapiens) (UniProt Q02750). Put plainly: Inhibition of MAP2K1 (unknown origin) at 50 nM by Z'LYTE screening method relative to control.
The target of assay [12] is Mitogen-activated protein kinase 1 (Homo sapiens) (UniProt P28482). Put plainly: Inhibition of MAPK1 (unknown origin) at 50 nM by Z'LYTE screening method relative to control.
The target of assay [13] is Serine/threonine-protein kinase PAK 1 (Homo sapiens) (UniProt Q13153). Put plainly: Inhibition of PAK1 (unknown origin) at 50 nM by Z'LYTE screening method relative to control.
Assay [14] addresses Protein kinase C alpha type (Homo sapiens) (UniProt P17252). The assay is described as follows: Inhibition of PKCalpha (unknown origin) at 50 nM by Z'LYTE screening method relative to control.
Assay [15] addresses Protein kinase C eta type (Homo sapiens, UniProt P24723). The assay is described as follows: Inhibition of PKCeta (unknown origin) at 50 nM by Z'LYTE screening method relative to control.
For assay [16], the target named is Protein kinase C theta type (Homo sapiens, UniProt Q04759). The assay is described as follows: Inhibition of PKCtheta (unknown origin) at 50 nM by Z'LYTE screening method relative to control.
Assay [17] concerns the target T3, Protein kinase C zeta type (Homo sapiens) (UniProt Q05513).
T3 sequence (whole entry): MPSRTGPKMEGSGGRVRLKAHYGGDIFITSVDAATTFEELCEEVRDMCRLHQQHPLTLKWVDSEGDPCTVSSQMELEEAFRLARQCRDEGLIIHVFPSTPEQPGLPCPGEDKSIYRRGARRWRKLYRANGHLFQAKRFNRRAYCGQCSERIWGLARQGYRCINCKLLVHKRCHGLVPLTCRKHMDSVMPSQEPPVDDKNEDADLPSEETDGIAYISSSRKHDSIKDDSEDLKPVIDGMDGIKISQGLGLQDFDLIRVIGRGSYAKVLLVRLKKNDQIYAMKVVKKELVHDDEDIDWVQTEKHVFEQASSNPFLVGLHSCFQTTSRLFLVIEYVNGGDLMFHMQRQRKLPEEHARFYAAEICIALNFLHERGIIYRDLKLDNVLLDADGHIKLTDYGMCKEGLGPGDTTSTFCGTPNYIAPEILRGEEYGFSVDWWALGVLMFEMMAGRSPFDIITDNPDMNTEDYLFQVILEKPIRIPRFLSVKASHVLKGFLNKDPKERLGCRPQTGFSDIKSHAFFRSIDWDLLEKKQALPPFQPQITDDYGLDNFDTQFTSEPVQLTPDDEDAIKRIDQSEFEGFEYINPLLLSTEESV
Put plainly: Inhibition of PKCzeta (unknown origin) at 50 nM by Z'LYTE screening method relative to control.

The target in assay [18] is PI3-kinase p110-alpha/p85-alpha (Homo sapiens) (UniProt P27986+P42336). The assay is described as follows: Inhibition of p110alpha/p85alpha (unknown origin) at 50 nM by Z'LYTE screening method relative to control. The class given is protein-complex assay.
In assay [19] the target is Focal adhesion kinase 1 (Homo sapiens) (UniProt Q05397). The assay is described as follows: Inhibition of FAK (unknown origin) at 50 nM by Z'LYTE screening method relative to control.
For assay [20], the target named is Proto-oncogene tyrosine-protein kinase receptor Ret (Homo sapiens) (UniProt P07949). Put plainly: Inhibition of RET (unknown origin) at 50 nM by Z'LYTE screening method relative to control.
Assay [21] deals with Ribosomal protein S6 kinase beta-1 (Homo sapiens) (UniProt P23443). Put plainly: Inhibition of p70S6K (unknown origin) at 50 nM by Z'LYTE screening method relative to control.

Dual specificity mitogen-activated protein kinase kinase 1 (Homo sapiens), sequence (Q02750 whole entry): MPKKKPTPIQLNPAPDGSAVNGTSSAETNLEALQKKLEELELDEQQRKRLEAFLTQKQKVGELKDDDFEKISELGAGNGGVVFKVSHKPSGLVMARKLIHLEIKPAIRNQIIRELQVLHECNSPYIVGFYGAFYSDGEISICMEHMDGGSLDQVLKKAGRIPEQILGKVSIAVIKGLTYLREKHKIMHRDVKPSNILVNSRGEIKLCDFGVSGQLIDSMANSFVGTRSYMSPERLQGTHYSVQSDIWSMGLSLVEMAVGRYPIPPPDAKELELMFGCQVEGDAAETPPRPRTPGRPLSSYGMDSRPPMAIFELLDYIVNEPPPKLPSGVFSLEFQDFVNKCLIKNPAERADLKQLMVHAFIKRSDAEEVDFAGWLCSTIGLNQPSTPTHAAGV
Fibroblast growth factor receptor 1 (Homo sapiens), sequence (P11362 22-822 limits assumed): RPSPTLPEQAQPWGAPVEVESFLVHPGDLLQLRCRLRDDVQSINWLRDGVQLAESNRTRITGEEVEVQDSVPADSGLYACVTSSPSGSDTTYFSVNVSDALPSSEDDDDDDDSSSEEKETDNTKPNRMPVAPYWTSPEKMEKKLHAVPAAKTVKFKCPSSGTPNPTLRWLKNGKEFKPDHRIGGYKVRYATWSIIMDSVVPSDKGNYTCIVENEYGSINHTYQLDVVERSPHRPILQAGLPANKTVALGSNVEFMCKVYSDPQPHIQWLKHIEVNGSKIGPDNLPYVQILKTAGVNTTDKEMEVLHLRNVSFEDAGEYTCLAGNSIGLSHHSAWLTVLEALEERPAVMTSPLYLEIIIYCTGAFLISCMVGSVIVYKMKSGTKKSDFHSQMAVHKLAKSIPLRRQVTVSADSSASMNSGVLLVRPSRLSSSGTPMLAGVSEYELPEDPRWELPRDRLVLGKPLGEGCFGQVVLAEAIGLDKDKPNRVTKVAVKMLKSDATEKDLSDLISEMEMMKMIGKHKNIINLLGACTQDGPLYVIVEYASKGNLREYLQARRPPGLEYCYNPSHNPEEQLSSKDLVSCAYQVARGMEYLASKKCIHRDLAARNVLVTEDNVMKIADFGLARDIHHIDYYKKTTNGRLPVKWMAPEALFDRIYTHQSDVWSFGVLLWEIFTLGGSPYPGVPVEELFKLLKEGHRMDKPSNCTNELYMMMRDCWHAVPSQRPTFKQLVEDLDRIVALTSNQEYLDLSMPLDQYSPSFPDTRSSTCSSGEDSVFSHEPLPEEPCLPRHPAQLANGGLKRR
Cell division control protein 42 homolog (Homo sapiens), sequence (P60953 whole entry, looked up): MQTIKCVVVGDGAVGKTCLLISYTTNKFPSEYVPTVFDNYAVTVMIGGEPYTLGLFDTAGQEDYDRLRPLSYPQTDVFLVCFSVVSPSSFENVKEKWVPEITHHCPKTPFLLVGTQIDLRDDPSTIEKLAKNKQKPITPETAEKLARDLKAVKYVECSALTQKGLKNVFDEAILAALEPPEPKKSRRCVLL
Protein kinase C theta type, sequence (Q04759 whole entry, looked up): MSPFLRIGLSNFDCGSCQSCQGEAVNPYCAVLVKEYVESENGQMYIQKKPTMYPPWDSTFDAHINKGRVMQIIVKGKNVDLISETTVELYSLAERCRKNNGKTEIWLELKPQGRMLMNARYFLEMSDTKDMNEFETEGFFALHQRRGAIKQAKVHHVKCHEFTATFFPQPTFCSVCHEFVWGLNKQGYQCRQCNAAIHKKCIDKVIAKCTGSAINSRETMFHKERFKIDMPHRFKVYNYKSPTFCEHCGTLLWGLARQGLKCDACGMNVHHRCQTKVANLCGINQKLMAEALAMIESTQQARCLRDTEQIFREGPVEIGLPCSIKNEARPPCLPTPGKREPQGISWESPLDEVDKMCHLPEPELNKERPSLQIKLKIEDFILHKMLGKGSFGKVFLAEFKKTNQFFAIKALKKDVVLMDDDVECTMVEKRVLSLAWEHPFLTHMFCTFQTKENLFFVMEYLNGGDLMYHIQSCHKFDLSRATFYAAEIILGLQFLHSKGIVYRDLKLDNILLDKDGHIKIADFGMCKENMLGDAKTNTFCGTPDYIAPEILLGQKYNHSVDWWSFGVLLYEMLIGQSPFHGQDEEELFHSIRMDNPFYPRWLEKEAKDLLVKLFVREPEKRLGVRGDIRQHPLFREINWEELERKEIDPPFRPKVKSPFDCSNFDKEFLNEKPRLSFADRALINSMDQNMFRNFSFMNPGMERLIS
Tyrosine-protein kinase ABL1 (Homo sapiens), sequence (P00519 whole entry): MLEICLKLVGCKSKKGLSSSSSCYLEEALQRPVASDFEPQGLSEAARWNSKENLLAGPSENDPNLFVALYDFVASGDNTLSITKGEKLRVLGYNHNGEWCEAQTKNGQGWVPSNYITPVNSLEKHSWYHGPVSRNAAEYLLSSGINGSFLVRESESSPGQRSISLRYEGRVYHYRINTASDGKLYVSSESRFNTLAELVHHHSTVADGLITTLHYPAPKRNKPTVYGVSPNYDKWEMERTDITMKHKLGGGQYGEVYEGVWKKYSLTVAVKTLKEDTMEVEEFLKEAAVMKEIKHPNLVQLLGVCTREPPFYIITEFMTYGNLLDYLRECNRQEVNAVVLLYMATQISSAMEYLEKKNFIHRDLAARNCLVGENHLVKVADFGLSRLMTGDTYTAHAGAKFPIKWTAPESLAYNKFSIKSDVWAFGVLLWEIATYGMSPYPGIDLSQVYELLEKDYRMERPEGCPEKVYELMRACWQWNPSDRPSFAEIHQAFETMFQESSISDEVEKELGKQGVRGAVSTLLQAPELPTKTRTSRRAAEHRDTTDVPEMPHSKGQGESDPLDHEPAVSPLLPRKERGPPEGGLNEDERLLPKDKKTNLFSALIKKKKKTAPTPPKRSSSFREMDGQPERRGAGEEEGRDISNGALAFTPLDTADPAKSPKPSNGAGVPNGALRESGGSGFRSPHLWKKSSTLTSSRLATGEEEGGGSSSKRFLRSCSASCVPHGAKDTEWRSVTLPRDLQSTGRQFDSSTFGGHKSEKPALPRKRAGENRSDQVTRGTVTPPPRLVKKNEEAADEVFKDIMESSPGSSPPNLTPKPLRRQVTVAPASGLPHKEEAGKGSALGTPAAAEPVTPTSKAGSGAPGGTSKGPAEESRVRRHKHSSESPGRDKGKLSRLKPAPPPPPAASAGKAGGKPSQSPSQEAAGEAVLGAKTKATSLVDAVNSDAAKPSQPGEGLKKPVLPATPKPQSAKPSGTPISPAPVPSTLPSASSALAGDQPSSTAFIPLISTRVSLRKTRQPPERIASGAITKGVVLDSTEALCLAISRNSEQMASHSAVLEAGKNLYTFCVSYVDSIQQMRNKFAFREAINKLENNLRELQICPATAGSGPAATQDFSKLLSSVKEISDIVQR
Protein kinase C eta type, sequence (P24723 whole entry): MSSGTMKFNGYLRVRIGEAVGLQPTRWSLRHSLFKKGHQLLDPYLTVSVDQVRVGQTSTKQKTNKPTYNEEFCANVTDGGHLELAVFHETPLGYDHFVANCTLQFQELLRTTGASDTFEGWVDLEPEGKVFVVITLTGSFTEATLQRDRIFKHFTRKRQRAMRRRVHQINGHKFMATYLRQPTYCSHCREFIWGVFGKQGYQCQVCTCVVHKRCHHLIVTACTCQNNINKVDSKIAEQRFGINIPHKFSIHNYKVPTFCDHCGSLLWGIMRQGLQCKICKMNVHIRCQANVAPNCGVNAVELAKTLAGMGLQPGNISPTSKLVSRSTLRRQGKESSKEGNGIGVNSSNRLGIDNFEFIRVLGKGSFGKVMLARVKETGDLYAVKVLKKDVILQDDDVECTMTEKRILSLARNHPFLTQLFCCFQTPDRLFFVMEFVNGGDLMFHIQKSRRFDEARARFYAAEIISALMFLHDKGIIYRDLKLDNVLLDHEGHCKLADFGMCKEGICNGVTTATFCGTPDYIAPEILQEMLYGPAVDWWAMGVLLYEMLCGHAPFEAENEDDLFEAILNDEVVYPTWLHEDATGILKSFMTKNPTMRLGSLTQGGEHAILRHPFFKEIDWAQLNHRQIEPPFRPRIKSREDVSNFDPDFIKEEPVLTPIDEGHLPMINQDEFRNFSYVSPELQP
Mitogen-activated protein kinase 1 (Homo sapiens), sequence (P28482 whole entry): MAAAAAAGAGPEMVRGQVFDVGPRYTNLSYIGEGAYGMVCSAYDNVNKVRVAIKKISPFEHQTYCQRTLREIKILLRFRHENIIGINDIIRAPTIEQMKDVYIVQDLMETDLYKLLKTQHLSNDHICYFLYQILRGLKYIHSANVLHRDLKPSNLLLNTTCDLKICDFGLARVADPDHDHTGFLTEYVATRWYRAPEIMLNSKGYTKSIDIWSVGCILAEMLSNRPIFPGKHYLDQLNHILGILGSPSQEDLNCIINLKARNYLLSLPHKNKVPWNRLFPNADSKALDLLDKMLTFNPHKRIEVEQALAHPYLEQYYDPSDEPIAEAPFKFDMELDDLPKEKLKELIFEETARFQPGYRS

A word on the inhibition: it is how much of the control response was suppressed. Turning to `O=c1c2ccccc2[se]n1-c1nc(NC2CCCCC2)c2nc[nH]c2n1`, the inhibition in [1] was determined as 1%; in assay [2], 84%; in assay [3] it was 13%; in assay [4], 1%; in assay [5], 0%; in assay [6] it was 0%. The inhibition in assay [7] amounted to 0%; in assay [8], 2%; in [9], 10%; in [10] it was 1%; in assay [11] it was 6%; in assay [12], 0%. Moreover, the inhibition in assay [13] was 0%; in assay [14] it was 68%; in [15], 0%; in assay [16], 62%; in assay [17], 9%; in [18], 0%. For the same compound, the values for the inhibition in assay [19], in [20] and in [21] were 0%, 13% and 1%, respectively.
Regarding `O=c1c2ccccc2[se]n1-c1nc(N[C@H]2CC[Se]C2)c2nc[nH]c2n1`, the inhibition in assay [1] was found to be 1%; in assay [2], 87%; in assay [3] it was 0%; in assay [4], 5%; in assay [5], 0%; in assay [6], 0%. Moreover, the inhibition in assay [7] was 0%; in assay [8], 0%; in assay [9], 29%; in assay [10], 2%; in [11] it was 10%; in assay [12] it was 9%. In addition, the inhibition was determined as 0% in [13]; 100% in assay [14]; 6% in [15]; 98% in assay [16]; 12% in [17]; 0% in assay [18]. For the same compound, the inhibition in assay [19] turned out to be 0%; in assay [20] it was 7%; in [21] it was 3%.
On to `C[C@@H]1[C@H]2C[C@@H](C[C@H]1Nc1nc(-n3[se]c4ccccc4c3=O)nc3[nH]cnc13)C2(C)C`, for which the inhibition is 1% in assay [1]; 3% in assay [2]; 11% in [3]; 0% in [5]; 0% in [6]; 0% in assay [7]. In addition, the inhibition in assay [8] was found to be 1%; in [11], 5%; in [12], 1%; in assay [13], 1%; in assay [14], 10%; in assay [15] it was 1%. For the same compound, the inhibition was 16% in assay [16]; 7% in assay [17]; 0% in [18]; 0% in assay [19]; 2% in assay [20]; 2% in assay [21].
On to `O=C1c2ccccc2CN1c1nc(NC2CCCC2)c2nc[nH]c2n1`, for which the inhibition in [1] was found to be 1%; in assay [2] it was 1%; in assay [3] it was 1%; in assay [5], 0%; in [6] it was 0%; in assay [7] it was 0%. The inhibition in assay [8] was 1%; in assay [11] it was 1%; in assay [12], 0%; in assay [13], 0%; in assay [14], 0%; in assay [15], 4%. For the same compound, the inhibition was determined as 7% in [16]; 6% in assay [17]; 0% in [18]; 0% in [19]; 2% in [20]; 1% in [21].
As for `CCCNc1nc(-n2[se]c3ccccc3c2=O)nc2[nH]cnc12`, the inhibition was determined as 0% in [1]; 4% in assay [2]; 6% in assay [3]; 1% in assay [5]; 0% in [6]; 0% in assay [7]. Further, the inhibition came out at 0% in assay [8]; 2% in [11]; 1% in [12]; 1% in assay [13]; 17% in assay [14]; 0% in assay [15]. Also, the inhibition in assay [16] was found to be 25%; in assay [17], 3%; in assay [18], 0%; in assay [19], 0%; in assay [20] it was 0%; in assay [21] it was 0%.
`O=c1c2ccccc2[se]n1-c1nc(Nc2ccccc2)c2nc[nH]c2n1`: the inhibition in assay [1] was 0%; in [2], 6%; in assay [3], 6%; in [5], 0%; in [6], 0%; in assay [7], 0%. The inhibition turned out to be 1% in assay [8]; 0% in [11]; 1% in assay [12]; 0% in assay [13]; 18% in assay [14]; 0% in assay [15]. Also, the inhibition worked out at 12% in assay [16]; 4% in assay [17]; 0% in [18]; 0% in assay [19]; 4% in [20]; 0% in assay [21].
